This note sets out measurements from ChEMBL document CHEMBL1130426, “Probing the mechanism of action and decomposition of amino acid phosphomonoester amidates of antiviral nucleoside prodrugs” (J Med Chem, 1997).

For orientation: CC50 means the concentration giving 50% cytotoxicity. Low readings indicate greater toxicity to the cells, high ones lower toxicity to the cells. As usually defined, the EC50 is the concentration giving half of the maximal effect.

In one assay the test system is CCRF-CEM. Description: Cytotoxic concentration required to inhibit 50% […] in CEM cells. It is filed as functional. To be noted: Homo sapiens.
Assay [1] can be described thus: Effective concentration required to inhibit 50% of HIV-1 in peripheral blood mononuclear cells (PBMC). It is filed as functional, Homo sapiens.
A short description of assay [2]: Cytotoxic concentration required to inhibit 50% […] in peripheral blood mononuclear cells (PBMC). In kind it is functional. To be noted: Homo sapiens.

Turning to `COC(=O)[C@H](Cc1ccccc1)NP(=O)(OC)OCC1OC(n2cc(C)c(=O)[nH]c2=O)CC1F` (stereo not given in full), the CC50 (in the assay on CCRF-CEM; in assay [2]) was above 100 µM throughout. Moreover, the EC50 in assay [1] is above 0.21 µM.
For `COC(=O)[C@H](Cc1c[nH]c2ccccc12)NP(=O)(OC)OCC1OC(n2cc(C)c(=O)[nH]c2=O)CC1F` (stereo not given in full), the CC50 (in the assay with CCRF-CEM; in assay [2]) was above 100 µM in each case. The EC50 in assay [1] was 0.29 µM.
For `COC(=O)[C@H](Cc1c[nH]c2ccccc12)NP(=O)(O)OC[C@H]1O[C@@H](n2cc(C)c(=O)[nH]c2=O)C[C@@H]1N=[N+]=[N-]`, the CC50 (in the assay with CCRF-CEM; in assay [2]) was above 100 µM each time. In assay [1], this compound came in with a half-maximal effective concentration (EC50) of 0.01 µM.
Turning to `COC(=O)[C@H](Cc1ccccc1)NP(=O)(O)OCC1OC(n2cc(C)c(=O)[nH]c2=O)CC1N=[N+]=[N-]` (stereo not given in full), the CC50 (in the assay with CCRF-CEM; in assay [2]) was above 100 µM throughout. In addition, it took 0.6 µM to reach a half-maximal effect in assay [1] (EC50).
As for `COC(=O)[C@H](Cc1c[nH]c2ccccc12)NP(=O)(OCCC#N)OCC1OC(n2cc(C)c(=O)[nH]c2=O)CC1N=[N+]=[N-]` (stereo not given in full), the CC50 (in the assay on CCRF-CEM; in assay [2]) was above 100 µM in each case. Moreover, the 50% effective concentration (EC50) in assay [1] was 0.4 µM.
Take `COC(=O)[C@H](Cc1c[nH]c2ccccc12)NP(=O)(O)OCC1OC(n2cc(C)c(=O)[nH]c2=O)CC1F` (stereo not given in full): the CC50 in the assay on CCRF-CEM is 35.1 µM; in assay [2], above 100 µM. In assay [1], this compound displayed an EC50 of 0.9 µM.
On to `COC(=O)[C@H](Cc1c[nH]c2ccccc12)NP(=O)(OCCC#N)OCC1OC(n2cc(C)c(=O)[nH]c2=O)CC1F` (stereo not given in full), for which the CC50 with CCRF-CEM is above 95.6 µM; in assay [2] it was above 100 µM. In addition, in assay [1], the 50% effective concentration (EC50) is 0.2 µM.
The matching figures for `COC(=O)[C@H](Cc1ccccc1)NP(=O)(OCCC#N)OCC1OC(n2cc(C)c(=O)[nH]c2=O)CC1N=[N+]=[N-]` (stereo not given in full): above 100 µM, above 100 µM and above 1 µM.
The corresponding values for `COC(=O)[C@H](Cc1ccccc1)NP(=O)(OC)OCC1OC(n2cc(C)c(=O)[nH]c2=O)CC1N=[N+]=[N-]` (stereo not given in full) are above 50 µM, above 100 µM and 0.09 µM.
The corresponding values for `COC(=O)[C@H](Cc1c[nH]c2ccccc12)NP(=O)(OC)OCC1OC(n2cc(C)c(=O)[nH]c2=O)CC1N=[N+]=[N-]` (stereo not given in full) are above 50 µM, above 50 µM and 0.3 µM.
As to `Cc1cn([C@H]2C[C@H](F)[C@@H](CO)O2)c(=O)[nH]c1=O` [ALOVUDINE], the EC50 in assay [1] was determined as 0.001 µM. This compound also yielded a half-maximal cytotoxic concentration (CC50) in assay [2] of 8.6 µM.
With `Cc1cn([C@H]2C[C@H](N=[N+]=[N-])[C@@H](CO)O2)c(=O)[nH]c1=O` [ZIDOVUDINE], the CC50 is 14.3 µM in the assay on CCRF-CEM and above 100 µM in assay [2]. The compound further had a half-maximal effective concentration (EC50) in assay [1] of 0.08 µM.
